One assay deals with Erysiphe cichoracearum. Briefly: Fungicidal activity: powdery mildew of cucumber (ERYSCI). The settings on record: Golovinomyces cichoracearum, 24 h, 1 Day Protectant, read-out: Disease Control ERYSCI 1DP. Type of assay: in vivo. As for the experimental part:
Technical grades of materials were dissolved in acetone, which were then mixed with nine volumes of water containing 110 ppm Triton X-100. The fungicide solutions were applied onto wheat seedlings using an automated booth sprayer to run-off. All sprayed plants were allowed to air dry prior to further handling. Wheat plants (variety Yuma) were grown from seed in a greenhouse in 50% mineral soil/50% soil-less Metro mix until the first leaf was fully emerged, with 7-10 seedlings per pot. These plants were inoculated with an aqueous spore suspension of Septoria tritici either prior to or after fungicide treatments. After inoculation the plants were kept in 100% relative humidity (one day in a dark dew chamber followed by two to three days in a lighted dew chamber at 20° C.) to permit spores to germinate and infect the leaf. The plants were then transferred to a greenhouse set at 20° C. for disease to develop. When disease symptoms were fully expressed on the 1st leaves of untreated plants, infection levels were assessed on a scale of 0 to 100 percent disease severity. Percent disease control was calculated using the ratio of disease severity on treated plants relative to untreated plants. Evaluation of Fungicidal Activity: Powdery Mildew of Cucumber (Erysiphe cichoracearum; Bayer Code […]) Cucumber seedlings (variety Bush Pickle) were grown in soil-less Metro mix, with one plant per pot, and used in the test when 12 to 14 days old. Plants were inoculated with a spore suspension 24 hr following fungicide treatments. After inoculation the plants remained in the greenhouse set at 20° C. until disease was fully expressed. Fungicide formulation, application and disease assessment on the sprayed leaves followed the procedures as described in the Example A.

The next assay has as its system Rhyncosporium secalis. Description: Fungicidal activity: barley scald (RHYNSE). Type of assay: in vivo. The settings on record: 100 ppm, 1 Day Protectant. The method, then: Technical grades of materials were dissolved in acetone, which were then mixed with nine volumes of water containing 110 ppm Triton X-100. The fungicide solutions were applied onto wheat seedlings using an automated booth sprayer to run-off. All sprayed plants were allowed to air dry prior to further handling. Wheat plants (variety Yuma) were grown from seed in a greenhouse in 50% mineral soil/50% soil-less Metro mix until the first leaf was fully emerged, with 7-10 seedlings per pot. These plants were inoculated with an aqueous spore suspension of Septoria tritici either prior to or after fungicide treatments. After inoculation the plants were kept in 100% relative humidity (one day in a dark dew chamber followed by two to three days in a lighted dew chamber at 20° C.) to permit spores to germinate and infect the leaf. The plants were then transferred to a greenhouse set at 20° C. for disease to develop. When disease symptoms were fully expressed on the 1st leaves of untreated plants, infection levels were assessed on a scale of 0 to 100 percent disease severity. Percent disease control was calculated using the ratio of disease severity on treated plants relative to untreated plants. Evaluation of Fungicidal Activity: Barley Scald (Rhyncosporium secalis; Bayer Code […]) Barley seedlings (variety Harrington) were propagated in soil-less Metro mix, with each pot having 8 to 12 plants, and used in the test when first leaf was fully emerged. Test plants were inoculated by an aqueous spore suspension of Rhyncosporium secalis 24 hr after fungicide treatments. After inoculation the plants were kept in a dew room at 20° C. with 100% relative humidity for 48 hr. The plants were then transferred to a greenhouse set at 20° C. for disease to develop. Fungicide formulation, application and disease assessment on the sprayed leaves followed the procedures as described in the Example A.

`COc1ccnc(C(=O)N[C@H]2COC[C@H](OCC(C)C)[C@@H](OCC(C)C)[C@H](C)OC2=O)c1OCOC(=O)C(C)C` [Compound 2]: the pest or weed control at 100 ppm with Erysiphe cichoracearum was 80 to 100%.

For `COc1ccnc(C(=O)N[C@H]2COC[C@H](OCC(C)C)[C@@H](OCC(C)C)[C@H](C)OC2=O)c1OCOC(C)=O` [Compound 3, (2-((3S,7S,8S,9S)-7,8-diisobutoxy-9-methyl-2-oxo-1,5-dioxonan-3-ylcarbamoyl)-4-methoxypyridin-3-yloxy)methyl], the pest or weed control at 100 ppm in the assay with Erysiphe cichoracearum was 0 to 80%.

With `COc1ccnc(C(=O)N[C@H]2COC[C@H](OC(=O)C(C)C)[C@@H](OC(=O)C(C)C)[C@H](C)OC2=O)c1OCOC(C)=O` [Compound 57], the pest or weed control at 100 ppm in the assay on Erysiphe cichoracearum lay within 0 to 80%.

Take `COc1ccnc(C(=O)N[C@H]2COC[C@H](OCCCC(F)(F)F)[C@@H](OCCCC(F)(F)F)[C@H](C)OC2=O)c1OCOC(C)=O` [Compound 68]: the pest or weed control at 100 ppm in the assay on Erysiphe cichoracearum lay in the range of 0 to 80%.

Consider `COc1ccnc(C(=O)N[C@H]2COC[C@H](OCC(C)C)[C@@H](OC3CCCCC3)[C@H](C)OC2=O)c1OCOC(C)=O` [Compound 77], for which, in the assay on Erysiphe cichoracearum, the pest or weed control at 100 ppm was in the range of 0 to 80%.

Take `CCC(C)(C)O[C@H]1COC[C@H](NC(=O)c2nccc(OC)c2OCOC(C)=O)C(=O)O[C@@H](C)[C@@H]1OCC(C)C` [Compound 78]: in the assay on Erysiphe cichoracearum, the pest or weed control at 100 ppm lay within 80 to 100%.

Consider `COc1ccnc(C(=O)N[C@H]2COC[C@H](Oc3ccccc3)[C@@H](Oc3ccccc3)[C@H](C)OC2=O)c1OCOC(C)=O` [Compound 84], for which, in the assay on Erysiphe cichoracearum, the pest or weed control at 100 ppm lay within 0 to 80%. The “Disease Control RHYNSE 1 DP” value in the assay with Rhyncosporium secalis is listed as “A (80-100)”.

On to `COc1ccnc(C(=O)N[C@H]2COC[C@H](OCC(C)C)[C@@H](Oc3ccccc3)[C@H](C)OC2=O)c1OCOC(C)=O` [Compound 85], for which, in the assay with Erysiphe cichoracearum, the pest or weed control at 100 ppm was 0 to 80%.

Take `COc1ccnc(C(=O)N[C@H]2COC[C@H](Oc3ccccc3)[C@@H](OCC(C)C)[C@H](C)OC2=O)c1OCOC(C)=O` [Compound 86]: the pest or weed control at 100 ppm in the assay with Erysiphe cichoracearum was in the range of 0 to 80%.

In the case of `CCCO[C@H]1COC[C@H](NC(=O)c2nccc(OC)c2OCOC(C)=O)C(=O)O[C@@H](C)[C@@H]1Oc1ccccc1` [Compound 221], the “Disease Control RHYNSE 1 DP” value with Rhyncosporium secalis is given as “A (80-100)”.

With `CCCO[C@H]1[C@H](C)OC(=O)[C@@H](NC(=O)c2nccc(OC)c2OCOC(C)=O)COC[C@@H]1Oc1ccccc1` [Compound 222], the “Disease Control RHYNSE 1 DP” value in the assay with Rhyncosporium secalis is listed as “A (80-100)”.

As to `COc1ccnc(C(=O)N[C@H]2COC[C@H](Oc3ccc(F)cc3)[C@@H](Oc3ccc(F)cc3)[C@H](C)OC2=O)c1OC(C)=O` [Compound 229, 2-(((3S,7S,8S,9S)-7,8-bis(4-fluorophenoxy)-9-methyl-2-oxo-1,5-dioxonan-3-yl)carbamoyl)-4-methoxypyridin-3-yl acetate], in the assay on Erysiphe cichoracearum, the pest or weed control at 100 ppm was 0 to 80%. In addition, in the assay on Rhyncosporium secalis, the “Disease Control RHYNSE 1 DP” value was “A (80-100)”.

Take `COc1ccnc(C(=O)N[C@H]2COC[C@H](Oc3ccc(F)cc3)[C@@H](Oc3ccc(F)cc3)[C@H](C)OC2=O)c1OCOC(C)=O` [Compound 231]: in the assay on Erysiphe cichoracearum, the pest or weed control at 100 ppm was 0 to 80%. For the same compound, in the assay with Rhyncosporium secalis, the “Disease Control RHYNSE 1 DP” value is “A (80-100)”.

For the origin of these results see US9144239B2, “Macrocyclic picolinamides as fungicides” (DOW AGROSCIENCES LLC, priority 2012, dated 2015).
